Activity calls are given as the source filed them. How the calls were made is not given here.
Test: Cytotoxicity activity against human HepG2 cells assessed by CellTiter-Glo luminescent cell viability assay.
Format: toxicity, cell-based
Set-up: assay stage confirmatory assay, source tissue liver
Settings: HepG2 cells, read-out: IC50 relative

Row | Structure (SMILES) | CC50
1 | CN(Cc1ccccc1)C1=CC(=[N+]2CCCC2)CC(C)(C)C1 | 3.3 µM (active)
2 | COc1ccccc1C(=O)Nc1nc2ccccc2[nH]1 | 2.8 µM (active)
3 | c1coc(CNc2ncnc3ccccc23)c1 | 9.5 µM (inactive)
4 | O=C(Nc1ccc(I)cc1)c1ccc(CN2CCOCC2)cc1 | 7.7 µM (inactive)
5 | Cc1noc(C)c1CC(=O)Nc1nc(-c2ccc(S(=O)(=O)N(C)C)cc2)cs1 | 4.3 µM (active)
6 | COc1ccc(Nc2ssc(=O)c2Cl)cc1OC | 13.8 µM (active)
7 | O=C(CCN1CCCCC1)c1cc2ccccc2o1 | 21.1 µM (inactive)
8 | Cc1ccnc(NC(=O)c2csc(Cl)c2)n1 | 4.8 µM (active)
9 | COCCn1cc(C(=O)Nc2nc3ccccc3[nH]2)c2ccccc21 | 11.7 µM (inactive)
10 | Cc1nc(CCN[C@@H](C)c2ccc(S(N)(=O)=O)cc2)cs1 | 2.7 µM (active)
11 | COc1ccc(CN(Cc2cn3c(C)cccc3n2)C2CC2)c(OC)c1 | 9.7 µM (active)
12 | CC(C)Cn1cnc(S(=O)(=O)N2CCC[C@@H]2COc2ccc(F)cc2)c1 | 8.4 µM (active)
13 | Cc1nc2ccccc2nc1CSCCCS(=O)(=O)C(C)C | 0.9 µM (active)
14 | c1ccc(-n2ccc(CNc3ncnc4c3ncn4C3CC3)n2)cc1 | 9.8 µM (active)
15 | O[C@H]1C[C@@H](c2cc(N3CCC(Oc4ccccc4Cl)CC3)ncn2)C1 | 5.6 µM (active)
16 | CCOc1cccc(N2CCN(c3ncnc4c(F)cccc34)CC2)n1 | 8.3 µM (active)
17 | COc1ccc2cc(CN3CCC(n4ccnc4)CC3)ccc2c1 | 11.5 µM (active)
18 | C#CCOC1CCN(C(=O)c2ccc(F)c(Br)c2)CC1 | 8.6 µM (active)
19 | COc1ccc(Nc2nc(CN3CCN(S(=O)(=O)c4cccs4)CC3)cs2)cc1 | 7.1 µM (active)
20 | CN(C)c1ccnc(NCCc2cc(F)cc3c2OCOC3)n1 | 10.2 µM (active)
21 | CC(=O)N1N=C(c2ccc(Br)cc2)C[C@H]1c1ccc(O)cc1 | 20.2 µM (inactive)
22 | CCc1ccc([N+]2=C3SCCCN3C[C@]2(O)c2ccc(OC)c(OC)c2)cc1 | 10.9 µM (active)
23 | c1ccc(-c2nc3n(n2)Cc2ccccc2-3)cc1 | 2.7 µM (active)
24 | Cc1occc1C(=O)NC1CCN(CCC(=O)c2ccccc2)CC1 | 9.5 µM (active)
25 | c1nc(N2CCN(Cc3ccc4c(c3)OCO4)CC2)c2ccsc2n1 | 5.1 µM (active)
26 | Cc1ccnn1-c1ccc(C(=O)Nc2cc(N(C)C)ccn2)cc1 | 12.1 µM (active)
27 | O=C(c1c[nH]c(-c2ccccn2)c1)c1ccccc1O | 12.6 µM (inactive)

Row | Structure (SMILES) | CC50
28 | O=C(Nc1ccc2c(c1)S(=O)(=O)C=C2)c1ncoc1-c1ccco1 | 10.9 µM (inactive)
29 | C[C@H](Nc1nc(N)nc2ccccc12)c1ccccc1 | 3.9 µM (active)
30 | O=S(=O)(c1ccc(S(=O)(=O)N2CCOc3ccccc32)cc1)N1CCCC1 | 4.2 µM (active)
31 | CCS(=O)(=O)c1ccc(NC(=O)c2ccc(F)c(S(=O)(=O)N3CCCCC3)c2)cc1 | 6.1 µM (inactive)
32 | Cc1ccc2ncc(C(=O)Nc3ccc(Cl)cc3O)c(=O)n2c1 | 1.4 µM (inactive)
33 | c1ccc(Oc2cccc(C[C@H]3CCCN3)c2)cc1 | 13.7 µM (inactive)
34 | Cc1cc(C)n(-c2ccc(C(=O)Nc3ncccc3O)cc2)n1 | 8.8 µM (active)
35 | Cc1cc2sc(NC(=O)NCCNS(C)(=O)=O)nc2cc1F | 2.3 µM (active)
36 | N#Cc1c(N)[nH]c2cc(Br)ccc12 | 18 µM (inactive)
37 | CC(C)(C)NC(=O)NC(=O)CNc1ccccc1C(=O)Nc1ccc(F)cc1 | 50 µM (inactive)
38 | C[C@@H](c1ccccc1F)N(Cn1ncc(Cl)c(Cl)c1=O)C1CC1 | 11.4 µM (active)
39 | CCOc1ccc(NC(=O)CNC[C@H]2CCCO2)cc1C | 40.3 µM (inactive)
40 | COCC(=O)N1CCCN(Cc2ccc3c4c(cccc24)C(=O)OC3)CC1 | 13.4 µM (active)
41 | COc1ccc(C(=O)N(C)C)cc1NC(=O)c1ccc2ccccc2n1 | 8.9 µM (active)
42 | O=C1CN2C(=C1c1nc3ccccc3s1)NC(=O)c1sccc12 | 3.7 µM (active)
43 | ON=C1C[C@@H](c2ccc(Cl)cc2)Oc2ccccc21 | 2.7 µM (active)
44 | CCOc1ccc(S(=O)(=O)NCC2(C)CCNCC2)c2ccccc12 | 10 µM (active)
45 | CCN(Cc1ccc(OC)cc1)Cc1nc2c(F)cccc2[nH]1 | 10.2 µM (active)
46 | Cc1cc([C@H]2CCCN(CC(=O)Nc3nccs3)C2)n[nH]1 | 6.6 µM (inactive)
47 | CC[C@H]1CN(c2ccccc2)CCN1c1ccnc(C(C)C)n1 | 10.7 µM (active)
48 | COc1cc2c(cc1F)CN(Cc1cnc3ccccn13)CC2 | 2 µM (active)
49 | COc1ccc(C(=O)N2CCN(c3ncnc4cccc(F)c34)CC2)cc1 | 9.4 µM (active)
50 | Cc1cc(NC(=O)N2CC=C(c3c[nH]c4ncccc34)CC2)no1 | 9.2 µM (inactive)
51 | COc1ccc([C@@H]2CCCN2c2cnn(C(C)(C)C)c(=O)c2Cl)cc1 | 11.1 µM (active)
52 | N#Cc1c[nH]c(C(=O)Nc2cc(C(F)(F)F)ccn2)c1 | 12.3 µM (active)
53 | C[C@H](O)CN1CCC(CNCc2ccc(Cl)cc2)CC1 | 7.6 µM (active)
54 | COc1ccc(C(=O)Nc2nc3cc4c(cc3s2)OCCO4)cn1 | 50 µM (inactive)

Row | Structure (SMILES) | CC50
55 | CC(C)[C@H](NCC(=O)N1CCN(c2ccccn2)CC1)c1ccc(Cl)cc1 | 8 µM (active)
56 | CC(C)n1ncc2cc(NC(=O)c3cc4ccccc4cc3O)cnc21 | 10 µM (inactive)
57 | Cc1cnccc1NCCNC1CCN(c2ccc(F)c(F)c2)CC1 | 1.7 µM (active)
58 | CN1CCCN(C(=O)Nc2ccc3c4c(cccc24)CC3)CC1 | 9.4 µM (active)
59 | C[C@H](O)CN1CCC(CNCc2cccc(Br)c2)CC1 | 9.4 µM (active)
60 | O=C(c1cccc(S(=O)(=O)N2CCOCC2)c1)N1CCN(c2nc3ccccc3s2)CC1 | 5 µM (active)
61 | CS(=O)(=O)Nc1ccc(C(=O)N2CCN(CCOc3ccc(Cl)cc3)CC2)cc1 | 4.6 µM (active)
62 | CC(C)(C)Cc1cc(NC(=O)[C@@H]2CCCN2C(=O)c2ccc3c(c2)OCO3)[nH]n1 | 0.8 µM (active)
63 | Cc1cc(NCCCN2CCC(C)CC2)c2ccccc2n1 | 6.5 µM (active)
64 | Cc1cccc(C(=O)Nc2nc(-c3nccn3C)cs2)c1 | 4.7 µM (active)
65 | Cn1cc(S(=O)(=O)N2CCC[C@@H]2COc2ccc(F)cc2)cc1C(N)=O | 0.6 µM (active)
66 | Cc1ccc(NC(=O)NC[C@@H](C(C)C)N2CCN(C)CC2)cc1Cl | 11.3 µM (active)
67 | CC(C)(CN)c1cccc(-c2cccc(CN)c2)c1 | 12.3 µM (active)
68 | Cc1ccccc1Oc1ccnc(CNC(=O)c2nccn2C)c1 | 1.1 µM (active)
69 | COc1cc(OC)c(C2=CCN(C[C@H](O)COc3ccccc3F)CC2)c(OC)c1 | 6 µM (active)
70 | Cn1cc(S(=O)(=O)N2CCCC2)cc1C(=O)Nc1nc(-c2ccccn2)cs1 | 6.4 µM (inactive)
71 | CCc1cc(N2CCC(NC(=O)N3CCN(c4cccnn4)CC3)CC2)ncn1 | 16.3 µM (inactive)
72 | CON(C)C(=O)CSc1nc2sc(C)c(C)c2c(=O)n1Cc1ccccn1 | 0.6 µM (active)
73 | N#Cc1nccnc1Sc1nnc(COc2ccc(Cl)cc2)o1 | 2.9 µM (active)
74 | CN(C)c1cc(CNCc2cccc(OCc3ccccn3)c2)ccn1 | 15.3 µM (inactive)
75 | CC1(C)CC[C@H](CO)N(CCS(=O)(=O)c2ccc(C#N)cc2)C1 | 11.7 µM (active)
76 | COc1ccc(CNc2nccn(-c3ccc4c(c3)OCO4)c2=O)cc1OC | 9.1 µM (inactive)
77 | CCCC[C@H](CC)CNC1CCN(C(C)C)CC1 | 7.8 µM (inactive)
78 | CC(=O)c1ccc(NC(=O)c2cccc3cccnc23)cc1 | 0.9 µM (active)
79 | CN(C(=O)Cn1c(S(C)(=O)=O)nc2ccccc21)c1ccccc1 | 5.1 µM (inactive)
80 | O=C(Nc1ccnc2ccnn12)c1ccc2ccccc2n1 | 1.4 µM (active)
81 | Cc1csc(CCNc2cc(N3CCC[C@@H]3CO)ncn2)n1 | 2.4 µM (active)

Row | Structure (SMILES) | CC50
82 | Cc1cc(C(=O)Nc2cc(Cl)ccc2N2CCN(C)CC2)no1 | 11.9 µM (active)
83 | CCCOc1cc(S(=O)(=O)Nc2cccc(O)c2)ccc1Cl | 12 µM (active)
84 | C1=CC[C@@H](CNC2CCN(Cc3ccccc3)CC2)CC1 | 13 µM (active)
85 | CN(C)C(=O)CO[C@@H]1COCC[C@H]1NC(=O)c1cn(C)c2ccccc12 | 6.3 µM (active)
86 | CCN1CCCCC1CNCc1ccc2cc(O)ccc2c1 (stereo not given) | 11.5 µM (active)
87 | Cn1cc(-c2nc(C(=O)Nc3cccnc3-n3cncn3)cs2)cn1 | 2 µM (active)
88 | NC1CCN(S(=O)(=O)c2ccc([C@H]3[C@@H]4CCCC[C@@H]43)cc2)CC1 | 12 µM (active)
89 | OCC1CCCN(CCNCc2ccc(Cl)c(Cl)c2)C1 (stereo not given) | 5.7 µM (active)
90 | Cc1cc(NC(=O)c2cnn(-c3ccccc3)n2)cc(N2CCN(C)CC2)c1 | 6.1 µM (active)
91 | CCO[C@@H](CCNC(=O)c1csc(-c2ccoc2)n1)C(C)C | 1.3 µM (active)
92 | Cc1cc(-c2ccc(O)cc2O)nc2cc3c(cc12)OCO3 | 26.3 µM (inactive)
93 | CCn1c(Cn2ncc(Cl)c(Cl)c2=O)nc2cc(F)ccc21 | 3 µM (active)
94 | COc1ccc(C(N)=O)c(OCc2cccc3cccnc23)c1 | 0.3 µM (active)
95 | NC(=O)c1cc(-c2csc(Nc3ccccc3)n2)ccc1O | 14.2 µM (inactive)
96 | CN(c1ccccc1)S(=O)(=O)c1ccc(C(=O)N2CCN(CCOc3ccccc3)CC2)cc1 | 9.1 µM (active)
97 | O=C(Nc1nc2cc(C(F)(F)F)ccc2[nH]1)C1=COCCO1 | 7.1 µM (active)
98 | CCc1nccn1[C@H]1CCCN(CCOc2ccc(F)cc2)C1 | 6 µM (active)
99 | CC(C)CCn1c(SCC(=O)NCCN(C(C)C)C(C)C)nc2ccccc2c1=O | 12.5 µM (active)
100 | O=C(N[C@H]1CCCc2sccc21)c1cccc2c1OCO2 | 6.5 µM (active)
101 | Cc1c(C(=O)Nc2ncccc2O)oc2ccccc12 | 1.7 µM (active)
102 | CCc1nnsc1C(=O)Nc1cc(-c2cccs2)n[nH]1 | 4.8 µM (active)
103 | CCN1CCN(c2ccc(C(=O)Nc3nc(-c4cccnc4)cs3)cc2)CC1 | 5.8 µM (active)
104 | COc1ccc(OC2CCN(CC[C@H]3CCCCN3C)CC2)cc1 | 11.2 µM (inactive)
105 | Cc1cc(N2CCC[C@H](c3c[nH]c4ncccc34)C2)n2ncnc2n1 | 8.5 µM (active)

— ChEMBL document CHEMBL5303711, “ECBD screening data for assay EOS300108” (2023)
